Reference: patent USRE48461E1, “Modulation of androgen receptor expression” (Ionis Pharmaceuticals, Inc., priority 2012, dated 2021)
“And” between values parts separate entries of the source, which are not always exact repeats. Identical values can stand only once. Oligonucleotides are written 5' to 3', each unit as a sugar letter and its base; * is a phosphorothioate linkage, no mark a phosphodiester; rarer units and linkages stand in square brackets, end groups in braces. Plain capitals give the bases only. k = constrained ethyl (cEt); [5mC] = 5-methylcytosine; d = 2'-deoxy (DNA)

How the values were obtained:
[1] = system: AR mRNA; assay: Dose-dependent antisense inhibition of human AR in HuVEC cells (electroporation, qRT-PCR RTS3559, IC50); assay type: cell-based; details: HuVEC, electroporation, approximately 16 hours
Summary of the method: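 HuVEC cells dosed with antisense oligonucleotides by electroporation and treated approximately 16 hours. AR mRNA quantified by real-time qPCR with primer probe set RTS3559 and normalised to total RNA by RIBOGREEN; IC50 from dose-response.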

[2] = system: AR mRNA; assay: Antisense inhibition of human AR in HuVEC cells, single concentration (electroporation, qRT-PCR RTS3559); assay type: cell-based; details: electroporation, approximately 24 hours, relative to untreated control
Summary of the method: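 AR mRNA levels were measured with human primer-probe set RTS3559 and adjusted for total RNA (RIBOGREEN). Cells were HuVEC, with each antisense oligonucleotide delivered by electroporation at one concentration.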

[3] = Table 20, 500 nM oligonucleotide
[4] = Table 21, 500 nM oligonucleotide

Substance | percent inhibition of AR, 46.9 nM ([1]; Table 33) [%] | percent inhibition of AR, 187.5 nM ([1]; Table 33) [%] | percent inhibition of AR, 750.0 nM ([1]; Table 33) [%] | percent inhibition of AR, 3000.0 nM ([1]; Table 33) [%] | IC50 ([1]; Table 33) [nM] | % inhibition [2, 3] [%] | percent inhibition of AR, 3000.0 nM ([1]; Table 32) [%] | other results
583847 (kA*k[5mC]*kA*dG*d[5mC]*dG*dG*dG*dT*dG*dG*dA*dA*k[5mC]*kT*k[5mC]; antisense) [compound 583847] | 8 | 30 | 60 | 84 | 460 | 34 |  | 
583850 (kG*kG*kA*d[5mC]*dG*d[5mC]*dA*d[5mC]*dA*dG*d[5mC]*dG*dG*kG*kT*kG; antisense) [compound 583850] |  |  |  |  |  | 38 | 78 | percent inhibition of AR, 46.9 nM ([1]; Table 32): 9%; percent inhibition of AR, 187.5 nM ([1]; Table 32): 21%; percent inhibition of AR, 750.0 nM ([1]; Table 32): 54%; IC50 ([1]; Table 32): 600 nM
583851 (kG*kT*kG*dG*dG*dA*d[5mC]*dG*d[5mC]*dA*d[5mC]*dA*dG*k[5mC]*kG*kG; antisense) [compound 583851] | 8 | 24 | 54 | 76 | 610 | 33 |  | 
583853 (kT*kG*k[5mC]*dA*dT*dT*d[5mC]*dG*dG*d[5mC]*d[5mC]*dA*dA*kT*kG*kG; antisense) [compound 583853] | 24 | 51 | 70 | 80 | 210 | 33 |  | 
583855 (k[5mC]*k[5mC]*kT*dT*dT*dG*d[5mC]*dA*dT*dT*d[5mC]*dG*dG*k[5mC]*k[5mC]*kA; antisense) [compound 583855] |  |  |  |  |  | 44 | 91 | percent inhibition of AR, 46.9 nM ([1]; Table 32): 22%; percent inhibition of AR, 187.5 nM ([1]; Table 32): 50%; percent inhibition of AR, 750.0 nM ([1]; Table 32): 81%; IC50 ([1]; Table 32): 180 nM
583856 (kA*kA*k[5mC]*d[5mC]*dT*dT*dT*dG*d[5mC]*dA*dT*dT*d[5mC]*kG*kG*k[5mC]; antisense) [compound 583856] |  |  |  |  |  | 45 | 89 | percent inhibition of AR, 46.9 nM ([1]; Table 32): 31%; percent inhibition of AR, 187.5 nM ([1]; Table 32): 55%; percent inhibition of AR, 750.0 nM ([1]; Table 32): 74%; IC50 ([1]; Table 32): 140 nM
583862 (kG*k[5mC]*kT*d[5mC]*dT*dT*dG*d[5mC]*d[5mC]*dT*dG*d[5mC]*dG*k[5mC]*kT*kG; antisense) [compound 583862] | 15 | 37 | 64 | 79 | 410 | 32 |  | 
583864 (k[5mC]*kA*kG*dT*dG*d[5mC]*dT*d[5mC]*dT*dT*dG*d[5mC]*d[5mC]*kT*kG*k[5mC]; antisense) [compound 583864] |  |  |  |  |  | 46 | 85 | percent inhibition of AR, 187.5 nM ([1]; Table 32, 0.1875 µM): 49% and 47%; percent inhibition of AR, 750.0 nM ([1]; Table 32, 0.75 µM): 72% and 62%
583865 (kT*kT*k[5mC]*dA*dG*dT*dG*d[5mC]*dT*d[5mC]*dT*dT*dG*k[5mC]*k[5mC]*kT; antisense) [compound 583865] |  |  |  |  |  | 45 | 85 | percent inhibition of AR, 46.9 nM ([1]; Table 32): 33%; percent inhibition of AR, 187.5 nM ([1]; Table 32): 42%; percent inhibition of AR, 750.0 nM ([1]; Table 32): 68%; IC50 ([1]; Table 32): 190 nM
583866 (kT*k[5mC]*kT*dT*d[5mC]*dA*dG*dT*dG*d[5mC]*dT*d[5mC]*dT*kT*kG*k[5mC]; antisense) [compound 583866] | 17 | 48 | 71 | 91 | 240 | 32 |  | 
583868 (kA*k[5mC]*kT*d[5mC]*dA*dG*d[5mC]*dA*dG*dT*dA*dT*d[5mC]*kT*kT*k[5mC]; antisense) [compound 583868] | 19 | 31 | 59 | 81 | 410 | 34 |  | 
583871 (kA*kT*kA*d[5mC]*dT*d[5mC]*dA*dG*d[5mC]*dA*dG*dT*dA*kT*k[5mC]*kT; antisense) [compound 583871] |  |  |  |  |  | 47 | 87 | percent inhibition of AR, 46.9 nM ([1]; Table 32): 28%; percent inhibition of AR, 187.5 nM ([1]; Table 32): 30%; percent inhibition of AR, 750.0 nM ([1]; Table 32): 68%; IC50 ([1]; Table 32): 280 nM
583880 (kT*kT*kT*dG*dG*dT*dG*dT*dA*dA*d[5mC]*d[5mC]*dT*k[5mC]*k[5mC]*k[5mC]; antisense) [compound 583880] |  |  |  |  |  | 39 | 92 | percent inhibition of AR, 46.9 nM ([1]; Table 32): 13%; percent inhibition of AR, 187.5 nM ([1]; Table 32): 52%; percent inhibition of AR, 750.0 nM ([1]; Table 32): 78%; IC50 ([1]; Table 32): 220 nM
583881 (k[5mC]*k[5mC]*kT*dT*dT*dG*dG*dT*dG*dT*dA*dA*d[5mC]*k[5mC]*kT*k[5mC]; antisense) [compound 583881] |  |  |  |  |  | 47 | 91 | percent inhibition of AR, 46.9 nM ([1]; Table 32): 28%; percent inhibition of AR, 187.5 nM ([1]; Table 32): 50%; percent inhibition of AR, 750.0 nM ([1]; Table 32): 85%; IC50 ([1]; Table 32): 150 nM
583892 (k[5mC]*kA*kG*d[5mC]*d[5mC]*dT*dA*dG*dG*d[5mC]*dT*d[5mC]*dT*k[5mC]*kG*k[5mC]; antisense) [compound 583892] | 22 | 38 | 68 | 83 | 270 | 35 |  | 
583893 (kA*kG*k[5mC]*dA*dG*d[5mC]*d[5mC]*dT*dA*dG*dG*d[5mC]*dT*k[5mC]*kT*k[5mC]; antisense) [compound 583893] | 15 | 35 | 62 | 79 | 420 | 34 |  | 
583917 (kT*k[5mC]*kG*d[5mC]*dG*dA*d[5mC]*dT*d[5mC]*dT*dG*dG*dT*kA*k[5mC]*kG; antisense) [compound 583917] |  |  |  |  |  |  |  | percent inhibition of AR, 46.9 nM ([1]; Table 34): 6%; percent inhibition of AR, 187.5 nM ([1]; Table 34): 30%; percent inhibition of AR, 750.0 nM ([1]; Table 34): 50%; percent inhibition of AR, 3000.0 nM ([1]; Table 34): 70%; IC50 ([1]; Table 34): 640 nM; % inhibition [2, 4]: 37%
583919 (kG*kT*kA*dG*dT*d[5mC]*dG*d[5mC]*dG*dA*d[5mC]*dT*d[5mC]*kT*kG*kG; antisense) [compound 583919] | 27 | 60 | 85 | 91 | 140 |  |  | % inhibition [2, 4]: 55%
583920 (kT*kA*kG*dT*dA*dG*dT*d[5mC]*dG*d[5mC]*dG*dA*d[5mC]*kT*k[5mC]*kT; antisense) [compound 583920] | 11 | 16 | 50 | 72 | 760 |  |  | % inhibition [2, 4]: 42%
583922 (kA*kG*kT*dT*dG*dT*dA*dG*dT*dA*dG*dT*d[5mC]*kG*k[5mC]*kG; antisense) [compound 583922] |  |  |  |  |  |  |  | percent inhibition of AR, 46.9 nM ([1]; Table 34): 16%; percent inhibition of AR, 187.5 nM ([1]; Table 34): 43%; percent inhibition of AR, 750.0 nM ([1]; Table 34): 76%; percent inhibition of AR, 3000.0 nM ([1]; Table 34): 92%; IC50 ([1]; Table 34): 230 nM; % inhibition [2, 4]: 37%
583932 (kT*k[5mC]*kT*d[5mC]*d[5mC]*dA*dG*d[5mC]*dT*dT*dG*dA*dT*kG*k[5mC]*kG; antisense) [compound 583932] |  |  |  |  |  |  |  | percent inhibition of AR, 46.9 nM ([1]; Table 34): 9%; percent inhibition of AR, 187.5 nM ([1]; Table 34): 35%; percent inhibition of AR, 750.0 nM ([1]; Table 34): 64%; percent inhibition of AR, 3000.0 nM ([1]; Table 34): 81%; IC50 ([1]; Table 34): 380 nM; % inhibition [2, 4]: 39%
583933 (k[5mC]*kA*kG*d[5mC]*dG*dG*dG*dT*dT*d[5mC]*dT*d[5mC]*d[5mC]*kA*kG*k[5mC]; antisense) [compound 583933] |  |  |  |  |  |  |  | percent inhibition of AR, 46.9 nM ([1]; Table 34): 22%; percent inhibition of AR, 187.5 nM ([1]; Table 34): 25%; percent inhibition of AR, 750.0 nM ([1]; Table 34): 56%; percent inhibition of AR, 3000.0 nM ([1]; Table 34): 81%; IC50 ([1]; Table 34): 410 nM; % inhibition [2, 4]: 38%
583969 (k[5mC]*k[5mC]*kT*dT*d[5mC]*dT*dT*d[5mC]*dG*dG*d[5mC]*dT*dG*kT*kG*kA; antisense) [compound 583969] | 12 | 26 | 66 | 86 | 440 |  |  | % inhibition [2, 4]: 44%
583990 (kA*k[5mC]*kA*d[5mC]*dA*dT*d[5mC]*dA*dG*dG*dT*dG*d[5mC]*kG*kG*kT; antisense) [compound 583990] |  |  |  |  |  |  |  | percent inhibition of AR, 46.9 nM ([1]; Table 34): 0%; percent inhibition of AR, 187.5 nM ([1]; Table 34): 9%; percent inhibition of AR, 750.0 nM ([1]; Table 34): 33%; percent inhibition of AR, 3000.0 nM ([1]; Table 34): 56%; IC50 ([1]; Table 34): 1920 nM; % inhibition ([2]; Table 22, 500 nM oligonucleotide): 30%
